Reference: patent publication US8722580B2, “Agent for inhibiting cytokinin signaling” (Sumitomo Chemical Company, Limited, priority 2006, dated 2014)

Experiments:
Arabidopsis thaliana [1] = assay: Root growth-promoting activity test (Example 9); format: in vivo; settings: Arabidopsis thaliana, 240 h, main root length vs control section, 22° C., 10 days; for activity at 5 ppm: test final concentration 5 ppm (concentration with highest root growth rate); for activity at 2.5 ppm: test final concentration 2.5 ppm (concentration with highest root growth rate)
In short: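 Arabidopsis seeds (10–20 per tube) were grown in Enshi standard medium containing the compound from DMSO at 0.001–10 ppm final, at 22° C in light for 10 days. Main root length was averaged over eight repeats and expressed as % of the control.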

Arabidopsis thaliana [2] = assay: Root growth-promoting activity test (Example 22); format: in vivo; settings: main root length vs control section, 22° C., 10 days
Experimental: Enshi standard medium having the following composition (see Table 18) was prepared. To cluster tubes was dispensed each 4 μl of a solution of a chemical substance in DMSO to a final concentration of 0.001 ppm to 10 ppm, and then, was dispensed each 600 μl of the sterilized Enshi standard medium. Then the resulting solution was well mixed. In each of the cluster tubes, 10-20 seeds of Arabidopsis thaliana were sown, and cultured at 22° C. for 10 days in the light. Then, the length of main roots (average main roots) generated from the seeds of Arabidopsis thaliana was measured. An average of eight repeats was determined, and a root growth rate was determined according to the following equation.
Root growth rate (%)=(Average main root length in chemical substance-treated section)/(Average main root length in control section)×100
Enshi standard medium determined having the following composition (Table 18) was prepared. A DMSO solution of a chemical substance was dispensed by 4 μl to cluster tubes to a final concentration of 0.001 ppm to 10 ppm and the sterilized Enshi standard medium was dispensed by 600 μl and then the resulting solution was well mixed. 10-20 seeds of A. thaliana per cluster tube were sown in the cluster tubes. After culture at 22° C. for 10 days in bright light, the length of main roots (average main roots) took from seeds of A. thaliana was measured. An average of eight repeats was determined and the root growth rate was determined.
Root growth rate (%)=(Average main root length of chemical substance-treated section)/(Average main root length of control section)×100

cytokinin receptor CRE1 = molecular target: T1, cytokinin receptor CRE1 (Arabidopsis thaliana, UniProt Q9C5U0, S567G/T1018A); assay: Inhibition of intracellular signaling from plant-derived cytokinin receptor, growth of transformed yeast cell TM182-CRE1; format: cell-based; settings: for Relative growth rate (%) in test section of test substance to control section, Transformed cell TM182-CRE1: 30° C., 24 hours, turbidity OD 600; for inhibition at 2 ppm: read-out: Activity (%) of test substance for inhibiting intracellular signaling from plant-derived cytokinin receptor of cell
T1 construct: expressed in transfected cells; host or cells: Saccharomyces cerevisiae TM182 (sln1Δ) transformed with p415CYC-CRE1
T1 sequence (Q9C5U0 24-1080 S567G/T1018A): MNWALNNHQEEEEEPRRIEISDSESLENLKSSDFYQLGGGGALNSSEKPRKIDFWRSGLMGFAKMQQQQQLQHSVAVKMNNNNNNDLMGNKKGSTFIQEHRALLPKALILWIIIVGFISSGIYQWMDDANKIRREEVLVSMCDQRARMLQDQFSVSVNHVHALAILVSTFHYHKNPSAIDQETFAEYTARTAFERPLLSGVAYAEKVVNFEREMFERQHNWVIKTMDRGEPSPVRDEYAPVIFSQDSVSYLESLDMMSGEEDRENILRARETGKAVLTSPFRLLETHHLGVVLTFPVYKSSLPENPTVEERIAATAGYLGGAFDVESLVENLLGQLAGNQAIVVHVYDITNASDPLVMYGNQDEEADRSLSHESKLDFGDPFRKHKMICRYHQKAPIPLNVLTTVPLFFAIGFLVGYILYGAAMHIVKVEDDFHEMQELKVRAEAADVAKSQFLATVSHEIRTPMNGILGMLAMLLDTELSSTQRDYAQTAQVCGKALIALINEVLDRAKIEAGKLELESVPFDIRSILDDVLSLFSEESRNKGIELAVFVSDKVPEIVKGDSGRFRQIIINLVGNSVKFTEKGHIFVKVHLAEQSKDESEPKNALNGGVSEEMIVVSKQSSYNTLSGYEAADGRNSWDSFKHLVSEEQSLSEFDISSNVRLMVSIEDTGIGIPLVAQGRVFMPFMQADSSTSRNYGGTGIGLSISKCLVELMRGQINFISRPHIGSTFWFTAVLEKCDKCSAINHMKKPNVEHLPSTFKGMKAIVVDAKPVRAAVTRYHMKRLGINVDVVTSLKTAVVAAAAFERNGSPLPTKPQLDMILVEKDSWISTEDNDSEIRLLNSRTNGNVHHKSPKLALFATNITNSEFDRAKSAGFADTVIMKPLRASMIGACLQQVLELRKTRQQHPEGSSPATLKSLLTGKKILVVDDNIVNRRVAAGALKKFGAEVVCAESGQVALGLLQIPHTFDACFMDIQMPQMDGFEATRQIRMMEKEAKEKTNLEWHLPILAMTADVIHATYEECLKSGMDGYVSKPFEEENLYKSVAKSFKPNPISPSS
In short: (§1)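 Yeast TM182-CRE1 (DOLU+Glu) or control TM182-p415CYC1 (DOLU+Gal), after 18 h preculture at 30° C and dilution to OD600=0.1, exposed to compound at 2 ppm plus trans-zeatin 0.6 ppm for 24 h at 30° C. OD600 vs DMSO control, blank-corrected; inhibition = 100 − relative growth %.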

[3] = test system: transformed cell TM182-p415CYC1; assay: Control growth test with transformed yeast cell TM182-p415CYC1 (toxicity to yeast); format: cell-based; settings: trans-zeatin 0.6 ppm; chemical substance 2 ppm; 30° C., 24 hours; turbidity OD 600
In short: as §1

rice [4] = assay: Root growth-promoting activity using rice, seed growth pouch (Example 11); format: in vivo, Oriza sativa L. japonica; settings: 25° C., 7 days
Experimental: With respect to the chemical substance Ic3-1 and the chemical substance Ic7-1 (which inhibit intracellular signaling from a plant-derived cytokinin receptor of a cell) selected in Example 7, a main root-growth promoting activity was evaluated using rice (Oriza sativa L. japonica). Aqueous solutions of the chemical substance having different concentrations (10 ppm, 25 ppm, each containing 0.1% DMSO) were prepared. A naper towel was impregnated with 17 ml of the chemical solution, wherein the heavy paper was placed in a seed growth pouch for observation of root growth (177 mm×163 mm, manufactured by Daiki Rika Kogyo Co., Ltd.), and 3 rice seeds were sowed on the paper towel. The pouch was put in a plastic container, and then sealed. After culture in the light at 25° C. for 7 days, the length of a main root was measured. An average of 3 repeats was determined and a root growth rate was determined by the following equation. Root growth rate (%)=(Average main root length in chemical substance-treated section)/(Average main root length in control section)×100−100

rice [5] = assay: Root growth-promoting activity by rice seed treatment (Example 12); format: in vivo, Oriza sativa L. japonica; settings: rice seeds treated with 10,000 ppm acetone solution; 4 days dark at 30° C. then 35 days greenhouse
Experimental: With respect to the chemical substance Ic3-1 and the chemical substance Ic7-1 (which inhibit intracellular signaling from a plant-derived cytokinin receptor of a cell) selected in Example 7, a main root-growth promoting activity induced by seed treatment was evaluated using rice (Oriza sativa L. japonica). The chemical substance was dissolved in acetone to prepare a 10,000 ppm solution. The acetone chemical substance solution (300 μl) thus prepared was put in an eppendorf tube. Then, 15 seeds were put in the eppendorf tube. The resulting mixture was mixed for about 30 seconds. The seeds thus chemical-treated were spread and dried on a filter paper.
About 820 ml of culture soil was placed in a plastic container (120 mm in length, 97 mm in height) with a hole in the bottom. The chemical-treated seeds were sowed in the plastic container (15 seeds per plastic container). The seeds were cultivated in a dark place at 30° C. for 4 days and then cultivated in a greenhouse for 35 days. Roots of the plant thus cultivated were removed and the soil adhered to the plant was washed away, followed by freeze-drying. Then, the weight of roots after freeze-drying was measured. A test was repeated 3 times for each treatment section, and an average was determined.

[6] = test system: hypocotyl of Arabidopsis thaliana; assay: Plant differentiation-promoting activity, adventitious root formation from hypocotyl (Example 13); format: in vivo, Arabidopsis thaliana Columbia; settings: agar medium with trans-zeatin 0.01 ppm; test sections with final concentration 6 ppm or 2 ppm
Experimental: With respect to the chemical substance Ic3-1 and the chemical substance Ic7-1 (which inhibit intracellular signaling from a plant-derived cytokinin receptor of a cell) selected in Example 7, a plant differentiation-promoting activity was evaluated by examining an adventitious root formation activity using an hypocotyl of Arabidopsis thaliana Columbia.
First, an agar medium for sowing Arabidopsis thaliana was prepared. The agar medium contains, as components per 1 liter of an aqueous solution, 1 parcel of mixed salts for Murashige-Scoog plant medium (Wako Pure Chemical Industries, Ltd.) for 1 liter, 10 g of sucrose, 10 ml of an aqueous 5% MES (2-(N-Morpholino)ethanesulfonic acid) solution adjusted to pH 5.7 with potassium hydroxide, 100 mg of inositol, 1 ml of vitamins stock solution (10 g of thiamine hydrochloride, 1 g of pyridoxine hydrochloride, and 1 g of nicotinic acid per 1 liter of an aqueous solution) and 8 g of agar. Then, the agar medium was subjected to autoclave at 120° C. for 20 minutes, dispensed to circular petri dishes, and then solidified.
Seeds of Arabidopsis thaliana (about 25 μl) were put in a 1.5 ml tube. Thereto was added 1 ml of a 10-fold diluted solution of a sodium hypochlorite solution (Nacalai Tesque) with sterilized distilled water. The seed were sterilized while stirring for about 1 minute with a tube mixer (TOMY, MT-360, MIXING SPEED10). […]

[7] = trans-zeatin 0.6 ppm, chemical substance 2 ppm

SMILES | melting point [°C] | Relative growth rate (%) in test section of test substance to control section, Transformed cell TM182-CRE1 (cytokinin receptor CRE1; [7]) [%] | Relative growth rate (%) in test section of test substance to control section, Transformed cell TM182-p415CYC1 [3] [%] | inhibition at 2 ppm (cytokinin receptor CRE1) [%] | activity at 5 ppm (Arabidopsis thaliana [1]) [%] | further results
O=CNc1nc(-c2ccccc2)c2cc(Cl)ccc2n1 [Ic3-35, 6-chloro-2-formamido-4-phenylquinazoline] | 252.1 | – | – | – | – | activity at 10 ppm (Arabidopsis thaliana [1]; test final concentration 10 ppm (concentration with highest root growth rate)): 144%; Root growth-promoting activity (root growth rate) (Arabidopsis thaliana [2]; test final concentration 2.5 ppm (highest root growth rate)): 134.0%
O=[N+]([O-])c1ccc2nc(NCCCO)nc(-c3ccccc3)c2c1 [Ic7-1] | – | 6.7 | 115.8 | – | – | Activity (%) of test substance for inhibiting intracellular signaling from plant-derived cytokinin receptor of cell (cytokinin receptor CRE1; trans-zeatin 0.6 ppm, chemical substance 2 ppm, = 100 − relative growth rate of TM182-CRE1): 93.3%; main root growth increase relative to the control section (rice [4]; 10 ppm): 17%; main root growth increase relative to the control section (rice [4]; 25 ppm): 19%; dry weight of roots per plant, % of the control section (rice [5]): 126%; adventitious root formation from the hypocotyl portion [6]: adventitious roots were formed
CCOC(=O)CNc1nc(-c2ccccc2)c2cc(Cl)ccc2n1 [Ic3-33, 6-chloro-2-ethoxycarbonylmethylamino-4-phenylquinazoline] | 146.1 | 1.0 | 114.6 | 99 | 124 | Root growth-promoting activity (root growth rate) (Arabidopsis thaliana [2]; test final concentration 10 ppm (highest root growth rate)): 140.4%
CONc1nc(-c2ccccc2)c2cc(Cl)ccc2n1 [Ic3-32, 6-chloro-2-methoxyamino-4-phenylquinazoline] | 173.9 | 4.5 | 89.2 | 95.5 | 123 | –
O=C(O)Cc1c[nH]c2ccccc12 [IAA, reference compound] | – | – | – | – | – | dry weight of roots per plant, % of the control section (rice [5]): 87%
CN(N)c1nc(-c2ccccc2)c2cc(Cl)ccc2n1 [Ic3-27, 6-chloro-2-(1-methylhydrazino)-4-phenylquinazoline] | 155.9 | 2.3 | 107.4 | 97.7 | – | activity at 2.5 ppm (Arabidopsis thaliana [1]): 128%
OCCSc1nc(-c2ccccc2)c2cc(Cl)ccc2n1 [Ie3-1, 6-chloro-2-(2-hydroxyethylthio)-4-phenylquinazoline] | 124.4 | 2.3 | 110.7 | 97.7 | 121 | –
Clc1ccc2nc(NCc3ccco3)nc(-c3ccccc3)c2c1 [Ic3-16, 6-chloro-2-furfurylamino-4-phenylquinazoline] | 142 | 3.2 | 97.0 | 96.8 | 155 | Root growth-promoting activity (root growth rate) (Arabidopsis thaliana [2]; test final concentration 5 ppm (highest root growth rate)): 155.3%
Clc1ccc2nc(Cl)nc(-c3ccccc3)c2c1 [Ia1-3, 2,6-dichloro-4-phenylquinazoline] | 166.2 | 5.5 | 113.9 | 94.5 | 138 | –
CC(=O)SCCNc1nc(-c2ccccc2)c2cc(Cl)ccc2n1 [Ic3-14, 2-(2-acetylthioethylamino)-6-chloro-4-phenylquinazoline] | 128.9 | – | – | – | – | activity at 2.5 ppm (Arabidopsis thaliana [1]): 126%
